Experimental data: patent publication US12378243B2, “Quinoline compounds as inhibitors of KRAS” (Incyte Corporation, priority 2021, dated 2025)

Key:
KRAS G12D = KRAS G12D (Homo sapiens, UniProt P01116, G12D); assay: GDP-GTP exchange assay, KRAS G12D; type: biochemical; conditions: bodipy-loaded KRAS G12D 2.5 nM, GppNHp 500 uM, SOS1 150 nM; 4 hours pre-incubation, 2 hours incubation; read-out: G12D_exchange
Description: Inhibitors were serially diluted in DMSO and a volume of 0.1 μL was transferred to the wells of a black low volume 384-well plate. […] The exchange was initiated by the addition of a 5 μL/well volume containing 1 mM GppNHp and 300 nM SOS1 in assay buffer. […] The reaction plates were incubated at ambient temperature for 2 hours, a time estimated for complete GDP-GTP exchange in the absence of inhibitor.
Either GraphPad prism or Genedata Screener SmartFit was used to analyze the data. The IC50 values were derived by fitting the data to a four parameter logistic equation producing a sigmoidal dose-response curve with a variable Hill coefficient.
“NA” indicates IC50 not available.

Caco-2 cells = assay: Caco2 assay (permeability, A-B); type: in vitro ADME; conditions: Table 4; Papp absorptive direction (A-B), test compound 50 μM, 120 minutes at 37° C.
Description: Caco-2 cells are grown at 37° C. in an atmosphere of 5% CO2 in DMEM growth medium supplemented with 10% (v/v) fetal bovine serum, 1% (v/v) nonessential amino acids, penicillin (100 U/mL), and streptomycin (100 μg/mL). Confluent cell monolayers are subcultured every 7 days or 4 days for Caco-2 by treatment with 0.05% trypsin containing […]. Caco-2 cells are seeded in 96-well Transwell plates. The seeding density for Caco-2 cells is 14,000 cells/well. DMEM growth medium is replaced every other day after seeding. Cell monolayers are used for transport assays between 22 and 25 days for Caco-2 cells.
Cell culture medium is removed and replaced with HBSS. To measure the TEER, the HBSS is added into the donor compartment (apical side) and receiver compartment (basolateral side). The TEER is measured by using a REMS Autosampler to ensure the integrity of the cell monolayers. Caco-2 cell monolayers with TEER values ≥300 Ω·cm^2 are used for transport experiments. To determine the Papp in the absorptive direction (A-B), solution of test compound (50 μM) in HBSS is added to the donor compartment (apical side), while HBSS solution with 4% BSA is added to the receiver compartment (basolateral side). The apical volume was 0.075 mL, and the basolateral volume is 0.25 mL. The incubation period is 120 minutes at 37° C. in an atmosphere of 5% CO2. At the end of the incubation period, samples from the donor and receiver sides are removed and an equal volume of acetonitrile is added for protein precipitation. The supernatants are collected after centrifugation (3000 rpm, Allegra X-14R Centrifuge from Beckman Coulter, Indianapolis, IN) for LCMS analysis. The permeability value is determined according to the equation:
[formula] • where the flux rate (F, mass/time) is calculated from the slope of cumulative amounts of compound of interest on the receiver side, SA is the surface area of the cell membrane, VD is the donor volume, and MD is the initial amount of the solution in the donor chamber.
The symbol “+” indicates a Caco-2 value of […], “++” indicates a Caco-2 value of >0.5 but ≤1; and “+++” indicates a Caco-2 value of >1. “NA” indicates IC50 not available.

KRAS G12V mutant = KRAS G12V mutant (Homo sapiens, UniProt P01116, G12V); assay: GDP-GTP exchange assay, KRAS G12V; type: biochemical; conditions: bodipy loaded KRAS G12V 2.5 nM; 3 hours incubation after adding GppNHp-SOS1 mixture; read-out: G12V_exchange
Chain of KRAS G12V mutant (P01116 1-188 isoform P01116-2 G12V): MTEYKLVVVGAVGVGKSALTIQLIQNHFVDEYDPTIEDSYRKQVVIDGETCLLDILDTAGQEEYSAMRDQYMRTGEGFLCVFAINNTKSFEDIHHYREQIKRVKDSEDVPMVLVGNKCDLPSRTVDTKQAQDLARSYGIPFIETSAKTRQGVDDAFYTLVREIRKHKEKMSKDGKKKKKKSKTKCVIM

Chain of KRAS G12D (P01116 1-188 isoform P01116-2 G12D): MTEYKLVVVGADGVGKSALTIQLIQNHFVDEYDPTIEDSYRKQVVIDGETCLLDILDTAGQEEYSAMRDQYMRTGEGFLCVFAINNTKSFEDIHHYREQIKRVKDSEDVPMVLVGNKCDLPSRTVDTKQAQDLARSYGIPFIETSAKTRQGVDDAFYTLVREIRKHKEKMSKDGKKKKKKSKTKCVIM

| IC50 (KRAS G12D) [nM] | Caco-2 (Caco-2 cells) | IC50 (KRAS G12V mutant) [nM] | SMILES |
| --- | --- | --- | --- |
| < 100 | +++ (a Caco-2 value of >1) | 100 to 1000 | CN(C)C(=O)N1CCC[C@@H]1c1cc2c(-n3cncn3)nc3c(F)c(-c4cccc(Cl)c4Cl)c(CCC#N)cc3c2n1[C@H]1[C@H]2CN[C@@H]1C2 [Example 28, (2R)-2-(1-((1R,4R,5S)-2-azabicyclo[2.1.1]hexan-5-yl)-8-(2-cyanoethyl)-7-(2,3-dichlorophenyl)-6-fluoro-4-(1H-1,2,4-triazol-1-yl)-1H-pyrrolo[3,2-c]quinolin-2-yl)-N,N-dimethylpyrrolidine-1-carboxamide] |
| < 100 | +++ (a Caco-2 value of >1) | < 100 | COC(=O)N1CCC[C@@H]1c1cc2c(-n3cncn3)nc3c(F)c(-c4cccc(C)c4Cl)c(CCC#N)cc3c2n1[C@H]1[C@H]2CN[C@@H]1C2 [Example 29, Methyl (2R)-2-(1-((1R,4R,5S)-2-azabicyclo[2.1.1]hexan-5-yl)-7-(2-chloro-3-methylphenyl)-8-(2-cyanoethyl)-6-fluoro-4-(1H-1,2,4-triazol-1-yl)-1H-pyrrolo[3,2-c]quinolin-2-yl)pyrrolidine-1-carboxylate] |
| < 100 | +++ (a Caco-2 value of >1) | < 100 | COC(=O)N1[C@@H](c2cc3c(-c4ccc(C(=O)N(C)C)nc4)nc4c(F)c(-c5cccc(Cl)c5Cl)c(CCC#N)cc4c3n2[C@H]2[C@H]3CN[C@@H]2C3)C[C@@H]2C[C@@H]21 [Example 30, Methyl (1S,3R,5S)-3-(1-((1R,4R,5S)-2-azabicyclo[2.1.1]hexan-5-yl)-8-(2-cyanoethyl)-7-(2,3-dichlorophenyl)-4-(6-(dimethylcarbamoyl)pyridin-3-yl)-6-fluoro-1H-pyrrolo[3,2-c]quinolin-2-yl)-2-azabicyclo[3.1.0]hexane-2-carboxylate] |
| < 100 | ++ (a Caco-2 value of >0.5 but ≤1) | < 100 | COC(=O)N1CCC[C@@H]1c1cc2c(-c3ccc(C(=O)N(C)C)nc3)nc3c(F)c(-c4cccc(Cl)c4Cl)c(CCC#N)cc3c2n1[C@H]1[C@H]2CN[C@@H]1C2 [Example 32, Methyl (2R)-2-(1-((1R,4R,5S)-2-azabicyclo[2.1.1]hexan-5-yl)-8-(2-cyanoethyl)-7-(2,3-dichlorophenyl)-4-(6-(dimethylcarbamoyl)pyridin-3-yl)-6-fluoro-1H-pyrrolo[3,2-c]quinolin-2-yl)pyrrolidine-1-carboxylate] |
| < 100 | ++ (a Caco-2 value of >0.5 but ≤1) | < 100 | CNC(=O)c1ccc(-c2nc3c(F)c(-c4cccc(Cl)c4Cl)c(CCC#N)cc3c3c2cc([C@H]2CCCN2C(=O)OC)n3[C@H]2[C@H]3CN[C@@H]2C3)cn1 [Example 33, Methyl (2R)-2-(1-((1R,4R,5S)-2-azabicyclo[2.1.1]hexan-5-yl)-8-(2-cyanoethyl)-7-(2,3-dichlorophenyl)-6-fluoro-4-(6-(methylcarbamoyl)pyridin-3-yl)-1H-pyrrolo[3,2-c]quinolin-2-yl)pyrrolidine-1-carboxylate] |
| < 100 | + (a Caco-2 value of 50.5) | 100 to 1000 | Cc1nc2c(F)c(-c3cccc(F)c3Cl)c(CCC#N)cc2c2c1cc([C@H]1CCCN1C(=O)C1CC1)n2[C@H]1[C@H]2CN[C@@H]1C2 [Example 34, 3-(1-((1R,4R,5S)-2-Azabicyclo[2.1.1]hexan-5-yl)-7-(2-chloro-3-fluorophenyl)-2-((R)-1-(cyclopropanecarbonyl)pyrrolidin-2-yl)-6-fluoro-4-methyl-1H-pyrrolo[3,2-c]quinolin-8-yl)propanenitrile] |
| < 100 | +++ (a Caco-2 value of >1) | < 100 | C[C@H](c1cc2c(-c3ccc(C(C)(C)O)nc3)nc3c(F)c(-c4cccc5ccc(F)cc45)c(CCC#N)cc3c2n1[C@H]1[C@H]2CN[C@@H]1C2)n1ccncc1=O [Example 37, 3-(1-((1R,4R,5S)-2-Azabicyclo[2.1.1]hexan-5-yl)-6-fluoro-7-(7-fluoronaphthalen-1-yl)-4-(6-(2-hydroxypropan-2-yl)pyridin-3-yl)-2-((R)-1-(2-oxopyrazin-1(2H)-yl)ethyl)-1H-pyrrolo[3,2-c]quinolin-8-yl)propanenitrile] |
| < 100 | ++ (a Caco-2 value of >0.5 but ≤1) | < 100 | CNC(=O)c1ncc(-c2nc3c(F)c(-c4cccc(Cl)c4Cl)c(CCC#N)cc3c3c2cc([C@H]2CCCN2C(=O)OC)n3[C@H]2[C@H]3CN[C@@H]2C3)cc1F [Example 39, Methyl (2R)-2-(1-((1R,4R,5S)-2-azabicyclo[2.1.1]hexan-5-yl)-8-(2-cyanoethyl)-7-(2,3-dichlorophenyl)-6-fluoro-4-(5-fluoro-6-(methylcarbamoyl)pyridin-3-yl)-1H-pyrrolo[3,2-c]quinolin-2-yl)pyrrolidine-1-carboxylate] |
| < 100 | ++ (a Caco-2 value of >0.5 but ≤1) | < 100 | COC(=O)N1CCC[C@@H]1c1cc2c(-c3ccc(C(C)(C)O)nc3)nc3c(F)c(-c4cccc(Cl)c4Cl)c(CCC#N)cc3c2n1[C@H]1[C@H]2CN[C@@H]1C2 [Example 40, Methyl (2R)-2-(1-((1R,4R,5S)-2-azabicyclo[2.1.1]hexan-5-yl)-8-(2-cyanoethyl)-7-(2,3-dichlorophenyl)-6-fluoro-4-(6-(2-hydroxypropan-2-yl)pyridin-3-yl)-1H-pyrrolo[3,2-c]quinolin-2-yl)pyrrolidine-1-carboxylate] |
| < 100 | +++ (a Caco-2 value of >1) | < 100 | CCOC(=O)N1CCC[C@@H]1c1cc2c(-c3ccc(C(C)(C)O)nc3)nc3c(F)c(-c4cccc(Cl)c4Cl)c(CCC#N)cc3c2n1[C@H]1[C@H]2CN[C@@H]1C2 [Example 41, Ethyl (2R)-2-(1-((1R,4R,5S)-2-azabicyclo[2.1.1]hexan-5-yl)-8-(2-cyanoethyl)-7-(2,3-dichlorophenyl)-6-fluoro-4-(6-(2-hydroxypropan-2-yl)pyridin-3-yl)-1H-pyrrolo[3,2-c]quinolin-2-yl)pyrrolidine-1-carboxylate] |
| < 100 | ++ (a Caco-2 value of >0.5 but ≤1) | < 100 | [2H]C([2H])([2H])c1nc2c(F)c(-c3cccc(Cl)c3Cl)c(CCC#N)cc2c2c1cc([C@H]1CCCN1C(=O)N1CC(F)(F)C1)n2[C@H]1[C@H]2CN[C@@H]1C2 [Example 42, 3-(1-((1R,4R,5S)-2-Azabicyclo[2.1.1]hexan-5-yl)-7-(2,3-dichlorophenyl)-2-((R)-1-(3,3-difluoroazetidine-1-carbonyl)pyrrolidin-2-yl)-6-fluoro-4-(methyl-d3)-1H-pyrrolo[3,2-c]quinolin-8-yl)propanenitrile] |
| < 100 | +++ (a Caco-2 value of >1) | < 100 | N#CCCc1cc2c(ncc3cc([C@H]4CCCN4C(=O)N4CC(F)(F)C4)n([C@H]4[C@H]5CN[C@@H]4C5)c32)c(F)c1-c1cccc(Cl)c1Cl [Example 43, 3-(1-((1R,4R,5S)-2-Azabicyclo[2.1.1]hexan-5-yl)-7-(2,3-dichlorophenyl)-2-((R)-1-(3,3-difluoroazetidine-1-carbonyl)pyrrolidin-2-yl)-6-fluoro-1H-pyrrolo[3,2-c]quinolin-8-yl)propanenitrile] |
| < 100 | +++ (a Caco-2 value of >1) | < 100 | CNC(=O)c1ccc(-c2nc3c(F)c(-c4cccc5ccc(F)cc45)c(CCC#N)cc3c3c2cc([C@@H](C)N2CCOCC2=O)n3[C@H]2[C@H]3CN[C@@H]2C3)cn1 [Example 45, 5-(1-((1R,4R,5S)-2-Azabicyclo[2.1.1]hexan-5-yl)-8-(2-cyanoethyl)-6-fluoro-7-(7-fluoronaphthalen-1-yl)-2-((R)-1-(3-oxomorpholino)ethyl)-1H-pyrrolo[3,2-c]quinolin-4-yl)-N-methylpicolinamide] |
